Among the test systems are COLO 205 colon; HCT-116 colon; HL-60(TB) leukemia; HOP-92 NSCLC; HT29 colon; NCI-H226 lung; SW-620 colon; UO-31 renal; M14 melanoma; SF-539 CNS.
Experiment in all cases: inhibition of tumour cell growth, NCI panel, 48 h

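Grown in 96-well plates, cells were treated for 48 hours with each compound at five concentrations. Insufficient inhibition: endpoint recorded as highest concentration tested. The concentration for 50% growth inhibition is given as GI50. TGI: total growth inhibition.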

For `Cc1nc2c(c(N3CCCc4ccccc43)n1)CCC2`, the GI50 with COLO 205 colon is under 10 nM; in the assay on HCT-116 colon, under 10 nM; in the assay on HL-60(TB) leukemia, under 0.01 µM; in the assay on HOP-92 NSCLC, 2420 nM; with HT29 colon, under 10 nM; with NCI-H226 lung it was under 0.01 µM. Moreover, the GI50 in the assay on SW-620 colon and with UO-31 renal was under 10 nM in each case. For the same molecule, the TGI is 0.0111 µM with COLO 205 colon; 20.6 µM in the assay on HCT-116 colon; over 100 µM in the assay with HOP-92 NSCLC; 0.0131 µM in the assay with HT29 colon; 40.5 µM in the assay with NCI-H226 lung; over 100 µM with SW-620 colon. Besides, the TGI with UO-31 renal is over 100 µM.
For `C[C@]12CCC(=O)C(OC(=O)c3ccc([N+](=O)[O-])cc3)=C1CCC2=O`, the TGI with COLO 205 colon, in the assay on HCT-116 colon, in the assay on HL-60(TB) leukemia, with HOP-92 NSCLC, with HT29 colon and in the assay on M14 melanoma was over 100 µM each time. Further, the TGI in the assay with NCI-H226 lung, with SF-539 CNS and in the assay on SW-620 colon was over 100 µM each time.
Consider `CO[C@@H]1C=C[C@@]23c4cc5c(cc4CN(C[C@@H]2O)[C@H]3C1)OCO5`, for which the TGI is 39.2 µM in the assay with HL-60(TB) leukemia; 80.6 µM in the assay on HOP-92 NSCLC; over 100 µM in the assay on HT29 colon; 31.5 µM in the assay with M14 melanoma; over 100 µM in the assay on NCI-H226 lung; over 100 µM in the assay on SF-539 CNS. The results for the TGI in the assay with SW-620 colon and with UO-31 renal were over 100 µM and 62.2 µM, respectively.
In the case of `O=C1C(Cl)=C(Nc2ccc(Nc3ccccc3)c(NC3=C(Cl)C(=O)c4ccccc4C3=O)c2)C(=O)c2ccccc21`, the GI50 in the assay with HL-60(TB) leukemia is 2.07 µM; in the assay on HOP-92 NSCLC, 43.9 nM; in the assay on HT29 colon, 16100 nM; with M14 melanoma, 4550 nM; with NCI-H226 lung, 16.7 µM; in the assay on SF-539 CNS it was 3430 nM. For the same molecule, the GI50 with UO-31 renal was 1350 nM. Moreover, the TGI in the assay on HL-60(TB) leukemia is 4.65 µM; with HOP-92 NSCLC it was 3.27 µM; in the assay with HT29 colon, over 100 µM; in the assay with M14 melanoma, over 100 µM; in the assay with NCI-H226 lung it was 35.6 µM; with SF-539 CNS it was 24.2 µM. For the same molecule, the TGI in the assay with UO-31 renal turned out to be 7.71 µM.
As for `CCOC(=O)Cn1c2ccccc2c(=O)c2cc(C)c(C)c(C#N)c21`, the TGI with COLO 205 colon, with HCT-116 colon, in the assay with HL-60(TB) leukemia, in the assay on HOP-92 NSCLC, with HT29 colon and with NCI-H226 lung was over 100 µM each time. The TGI in the assay with SF-539 CNS, in the assay with SW-620 colon and in the assay with UO-31 renal was over 100 µM throughout.
As for `COC1C(O)CC(OC2CC(OC3CC(O[C@@H]4C(=O)c5c(cc6cc(OC7CC(OC8CC(O)C(O)C(C)O8)C(O)C(C)O7)c(C)c(O)c6c5O)CC4[C@H](OC)C(=O)O)OC(C)C3O)OC(C)C2O)OC1C` (stereo not given in full), the GI50 with COLO 205 colon was 1090 nM; in the assay with HCT-116 colon, 1250 nM; in the assay on HL-60(TB) leukemia, 5.53 µM; in the assay with HOP-92 NSCLC, 4400 nM; in the assay on HT29 colon it was 2550 nM; in the assay on M14 melanoma it was 3140 nM. Further, the GI50 is 1.15 µM in the assay with NCI-H226 lung, 2520 nM in the assay on SW-620 colon and 1110 nM in the assay with UO-31 renal. Further, the TGI with COLO 205 colon was 6.9 µM; with HCT-116 colon it was over 33.3 µM; with HL-60(TB) leukemia it was over 33.3 µM; in the assay with HOP-92 NSCLC, over 33.3 µM; with HT29 colon, 17.9 µM; with M14 melanoma, over 33.3 µM. The TGI is 9.72 µM in the assay with NCI-H226 lung, over 33.3 µM with SW-620 colon and over 33.3 µM in the assay on UO-31 renal.
On to `COC(OC)c1cc2c(cc1C=O)OCO2`, for which the TGI in the assay on HCT-116 colon, with HL-60(TB) leukemia, with HOP-92 NSCLC, with HT29 colon, in the assay with M14 melanoma and with NCI-H226 lung was over 100 µM in each case. For the same molecule, the TGI in the assay with SF-539 CNS, with SW-620 colon and in the assay with UO-31 renal was over 100 µM throughout.
Regarding `CC1CCN(Cc2ccc(NC(=O)c3cc4ccc5cccnc5c4[nH]3)cc2)CC1`, the GI50 in the assay with HCT-116 colon is 4180 nM; in the assay on HL-60(TB) leukemia, 3.16 µM; in the assay with HOP-92 NSCLC, 4760 nM; in the assay on HT29 colon, 3000 nM; with M14 melanoma it was 2050 nM; in the assay on NCI-H226 lung, 23.5 µM. The GI50 in the assay with SF-539 CNS was 1940 nM; in the assay with SW-620 colon, 3400 nM; in the assay on UO-31 renal, 2050 nM. In addition, the TGI turned out to be 19.6 µM with HCT-116 colon; 13.1 µM with HL-60(TB) leukemia; 20.5 µM in the assay on HOP-92 NSCLC; 14.5 µM in the assay on HT29 colon; 4.08 µM with M14 melanoma; 73.4 µM with NCI-H226 lung. The figures for the TGI in the assay on SF-539 CNS, in the assay on SW-620 colon and in the assay on UO-31 renal were 4.01 µM, 16.6 µM and 8.18 µM, respectively.
Turning to `COc1cc(C2CC(c3cccc(Nc4ccnc5cc(Cl)ccc45)c3)=NN2c2ccc(Cl)cc2)cc(OC)c1OC` (stereo not given), the GI50 with COLO 205 colon is 3130 nM; in the assay with HCT-116 colon, 1680 nM; with HL-60(TB) leukemia, 4.18 µM; in the assay on HOP-92 NSCLC, 1850 nM; in the assay with M14 melanoma, 630 nM; with NCI-H226 lung it was 8.45 µM. Further, the GI50 in the assay on SF-539 CNS was 1710 nM; with SW-620 colon, 666 nM; in the assay on UO-31 renal, 489 nM. The TGI was 24.5 µM in the assay on COLO 205 colon; over 100 µM in the assay with HCT-116 colon; over 100 µM with HL-60(TB) leukemia; 74.8 µM with HOP-92 NSCLC; 13.8 µM with M14 melanoma; over 100 µM in the assay on NCI-H226 lung. The values for the TGI with SF-539 CNS, with SW-620 colon and in the assay with UO-31 renal were 4.87 µM, over 100 µM and 15.3 µM, respectively.
Regarding `N#CC(C(=O)C(=O)Nc1ccccc1)c1ccccc1` (stereo not given), the TGI with HCT-116 colon, in the assay with HL-60(TB) leukemia, in the assay on HOP-92 NSCLC, in the assay with HT29 colon, with M14 melanoma and in the assay on NCI-H226 lung was over 100 µM each time. The TGI with SF-539 CNS, with SW-620 colon and with UO-31 renal was over 100 µM in each case.
As to `COc1ccc(/C(=N\NC(=O)NN)C(c2ccc(OC)cc2)C2(O)C(=O)Nc3c(Cl)cc(Cl)cc32)cc1` (stereo not given), the TGI with COLO 205 colon, with HCT-116 colon, in the assay with HL-60(TB) leukemia, in the assay on HOP-92 NSCLC, in the assay on HT29 colon and in the assay with M14 melanoma was over 100 µM each time. The TGI in the assay with NCI-H226 lung, in the assay on SW-620 colon and in the assay on UO-31 renal was over 100 µM throughout.
Consider `C=C(CO)CC(O)c1cc(OC)ccc1OC` (stereo not given), for which the TGI with COLO 205 colon, in the assay with HL-60(TB) leukemia, with HOP-92 NSCLC, with HT29 colon, in the assay on M14 melanoma and with NCI-H226 lung was over 100 µM throughout. Further, the TGI in the assay on SF-539 CNS, in the assay on SW-620 colon and in the assay on UO-31 renal was over 100 µM in each case.

Values taken from PubChem BioAssay (NCI).
